Data as given in patent publication US20020025312A1, “BIFUNCTIONAL WATER-SOLUBLE POLYMER DERIVATIVE AND COMPLEX CONTAINING IT” (priority 1997, published 2002).

Conditions: 2 mg/kg as adriamycin, tail vein, male BALB/c mouse
Procedure: To compare retention in blood of the respective liposomes, 2 mg/kg as the amount of adriamycin was administered from the tale vein to a male BALB/c mouse. After each period of time, the mouse was killed, and the plasma was collected. The amount of adriamycin was quantitatively analyzed by measuring fluorescence after extraction with hydrochloric acid/ethanol in accordance with a method of Konno et al. (Cancer Res. 47 4471 (1987)).
Accordingly, the amount of detected adriamycin is considered to reflect the behavior as the relevant liposome.

Structure (SMILES): COc1cccc2c1C(=O)c1c(O)c3c(c(O)c1C2=O)C[C@@](O)(C(=O)CO)C[C@@H]3O[C@H]1C[C@H](N)[C@H](O)[C@H](C)O1 [free adriamycin, adriamycin]
- retention in blood (concentration of adriamycin in blood plasma): disappeared from blood swiftly after the administration
